Measured values as given in patent publication US5589510A, “Method for inhibiting retroviral infection by administering a naphthalenesulfonic acid compound” (priority 1995, dated 1996).
Several values for one entry are separate records, joined by “and”; a condition that tells them apart may be missing. Equal entries are not always repeated. Where two headings read alike, the source gives them in different places.

What was measured:
[1] = system: TA98, TA1535, TA1537, TA1538, TA100 and W2P2uvr; experiment: Ames Test (in the presence of S9); type: cell-based, Salmonella typhimurium
From the text: Six Salmonella typhimuriumstrai strains, TA98, TA1535, TA1537, TA1538, TA100 and W2P2uvr were used in this experiment.

LD50, intravenous, mice = type: in vivo; conditions: mouse, in vivo, female mice, mortalities within 1 week
Protocol: The test material was administered intravenously to 5 female mice in five increasing doses. Mortalities were recorded within 1 week, and the LD50 was determined with the aid of statistical calculations.

[2] = biological target: T1, recombinant reverse transcriptase (RT) (Human immunodeficiency virus type 1 group M subtype B, UniProt P04585); experiment: Reverse transcriptase inhibition assay; type: biochemical, HIV-1
T1 construct: purchased Worthington Biochemical Corporation
Protocol: Inhibition of recombinant reverse transcriptase (RT) was performed by using commercially available Boehringer Mannheim RT assay kit (Cat. No. 1468 120) based on incorporation of digoxigenin labeled dUTP into DNA. Recombinant enzyme from HIV-1 was purchased from Worthington Biochemical Corporation. The level of anti-RT activity in the sample was determined by measurement of absorbance using an ELISA reader at 405 nm.

HIV-1 RF [3] = experiment: Antiviral assay, Experimental Protocol I (compound added after infection); type: cell-based; conditions: Human immunodeficiency virus 1, 240 h, p24 ELISA, read-out: % Inhibition (after day 10); for inhibition at 0.6 µg/mL: 0.6 μg/ml; for inhibition at 1.25 µg/mL: 1.25 μg/ml; for inhibition at 2.5 µg/mL: 2.5 μg/ml; for inhibition at 5 µg/mL: 5 μg/ml
Protocol: HIV-1 infectivity studies were conducted in CEM, H9, MT2 cells and peripheral blood mononuclear cells (PBMC). CEM, H9 and MT2 were grown in RPMI1640 medium, 10% heat-inactivated fetal bovine serum (FBS). PBMCs were stimulated with 4 μg/ml PHA for 48 hours in RPMI1640, 10% FBS before HIV-1 infection. After HIV-1 infection, PBMCs were maintained in RPMI 1640, 10% FBS and 10 10 units/ml IL-2. The major HIV-1 isolates used were MN, IIIB, SF2, AZT-sensitive A018 and AZT-resistant A018 provided by NIH AIDS research and reference reagent program. Two major antiviral assays were developed to determine the antiviral activities of the compounds of this invention (as inhibitors).
I. The cells were infected with HIV-1 RF or IIIB at an infectivity multiplicity (moi) of 0.001 in the absence of a compound of this invention for one hour. HIV-1 infected cells were washed once with PBS, resuspended in RPMI1640, 10% FBS medium and distributed in 24-well culture dishes (5×10^5 cells per well) in the presence of a compound of this invention as inhibitor. […]

standard Ames Test = conditions: literature (K-T. Chung et al); cited from earlier work
HIV-1 patient isolate IH = experiment: Inhibition of HIV-1 patient isolate IH in PBMCs; type: cell-based; conditions: Human immunodeficiency virus 1, PBMC, 288 h, read-out: % Inhibition (after day 12); for inhibition at 2.5 µg/mL: 2.5 μg/ml; for inhibition at 5 µg/mL: 5 μg/ml; for inhibition at 10 µg/mL: 10 μg/ml; for inhibition at 20 µg/mL: 20 μg/ml
Protocol: (§1) The inhibitory effects of additional naphthalenesulfonic acid compounds were tested as follows: Experimental Details:
PBMCs were activated for 48 hours in conditioned medium containing PHA at a concentration of 4 μg/ml. […] The test compound, previously dissolved in a glucose solution (1 mg/ml), was then added to each of the wells to achieve the appropriate concentration. The plate was then incubated overnight (about 15 hours) after which 50 μl of cell-free HIV-1 patient isolate was added to each well. The plates were incubated for further 6 to 8 hours after which all free floating solution of virus was washed off. Washing was performed four times.
(§2) After removal of the virus, all cultures were resuspended in conditioned medium containing 10% FCS.
(§3) For control experiments virus growth was monitored in either 10% FCS or 50% FCS throughout the observation period (15 days).

[4] = system: HIV-1 patient isolate NIH 900285; experiment: Inhibition of HIV-1 patient isolate NIH 900285 in PBMCs; type: cell-based; conditions: Human immunodeficiency virus 1, PBMC, 288 h, 10% FCS, read-out: % Inhibition (after day 12); for inhibition at 1 µg/mL: 1.0 μg/ml; for inhibition at 2.5 µg/mL: 2.5 μg/ml; for inhibition at 5 µg/mL: 5 μg/ml
Protocol: as §1
PBMCs were activated for 48 hours in conditioned medium containing PHA at a concentration of 4 μg/ml. Thereafter 10^6 cells were plated in each of the 24 well plates containing 10% FCS or 50% FCS. The test compound, previously dissolved in a glucose solution (1 mg/ml), was then added to each of the wells to achieve the appropriate concentration. The plate was then incubated overnight (about 15 hours) after which 50 μl of cell-free HIV-1 patient isolate was added to each well. The plates were incubated for further 6 to 8 hours after which all free floating solution of virus was washed off. Washing was performed four times.
as §2, §3

HIV-1 RF strain = experiment: SCID mouse model (SCID-hu mice infected with HIV-1); type: in vivo
Protocol: Immunodeficient CB-17 SCID (severe combined immunodeficient) mice were reconstituted with human peripheral blood cells (Scid-hu). Two weeks after engraftment, the presence of human IgG indicating the presence of functional T and B cells was confirmed. Four weeks after engraftment, SCID-hu mice were infected with 10^6 tissue culture infectious doses/ml (TCID) of RF strain by ip injection.
Twenty-four hours after infection, 8 infected mice were treated daily with Compound 6 aqueous 5% glucose solution by ip injection at a dose of 50 mg/kg for only five days. The same dose of D-(+)-glucose was injected into SCID hu mice as a control. One month after final ip dose, peritoneal cells from the mice were cocultured with human lymphocytes. After four weeks, cultures were scored for the production of virus by assaying HIV-1 p24 levels in the supernatant. […] On the other hand, 5 of the 8 control mice had cultivated virus.

HIV-1 RF [5] = experiment: Antiviral assay, Experimental Protocol II (virus incubated with compound before cells); type: cell-based; conditions: Human immunodeficiency virus 1, 240 h, 10% FCS, p24 ELISA, read-out: % Inhibition (after day 10); for inhibition at 1.25 µg/mL: 1.25 μg/ml; for inhibition at 2.5 µg/mL: 2.5 μg/ml; for inhibition at 5 µg/mL: 5 μg/ml
reverse transcriptase = conditions: literature (Balzarini et al.); cited from earlier work

COc1cc(-c2ccc(/N=N/c3ccc4c(S(=O)(=O)O)cc(S(=O)(=O)O)c(N)c4c3O)c(OC)c2)ccc1/N=N/c1ccc2c(S(=O)(=O)O)cc(S(=O)(=O)O)c(N)c2c1O [CSB, Chicago Sky Blue, reference compound]
Ames Test result [1]: Positive
Ames Test, specific mutagenic activity ([1]; the higher the value, the higher the mutagenicity): 10 colony no/μg
LD50 at 168 h (LD50, intravenous, mice): 100 mg/kg
inhibitory effect against reverse transcriptase (in words) [2]: inhibitory effect against reverse transcriptase
inhibition at 0.6 µg/mL (HIV-1 RF [3]; 10% FCS): 37%
inhibition at 1.25 µg/mL (HIV-1 RF [3]; 10% FCS): 70%
inhibition at 2.5 µg/mL (HIV-1 RF [3]; 10% FCS): 90%
mutagenic effects in Ames Test (standard Ames Test): strong mutagenic effects

COc1cc(N=Nc2c(S(=O)(=O)O)cc3cc(S(=O)(=O)O)cc(NC(=O)c4cccc(Cl)c4Cl)c3c2O)c(OC)cc1N=Nc1c(S(=O)(=O)O)cc2cc(S(=O)(=O)O)cc(NC(=O)c3ccc(Cl)cc3Cl)c2c1O [Compound 6]
Ames Test result [1]: Negative
LD50 at 168 h (LD50, intravenous, mice): 130 mg/kg
inhibition at 0.5 µM [2]: 32%
inhibition at 5 µM ([2]; at 5.0 μM): 80%
inhibition at 0.3 µg/mL (HIV-1 RF [3]; 10% FCS, 0.3 μg/ml): 99%
inhibition at 0.6 µg/mL (HIV-1 RF [3]; 10% FCS): 100%
inhibition at 1.25 µg/mL (HIV-1 RF [3]; 10% FCS): 100%
inhibition at 2.5 µg/mL (HIV-1 RF [3]; 10% FCS): 100%
inhibition at 5 µg/mL (HIV-1 RF [3]; 10% FCS): 100%
inhibition at 0.6 µg/mL (HIV-1 RF [3]; 50% Human Serum): 63%
inhibition at 1.25 µg/mL (HIV-1 RF [3]; 50% Human Serum): 64%
inhibition at 2.5 µg/mL (HIV-1 RF [3]; 50% Human Serum): 99%
inhibition at 5 µg/mL (HIV-1 RF [3]; 50% Human Serum): 100%
inhibition at 2.5 µg/mL (HIV-1 patient isolate IH; 10% FCS): 0%
inhibition at 5 µg/mL (HIV-1 patient isolate IH; 10% FCS): 91%
inhibition at 10 µg/mL (HIV-1 patient isolate IH; 10% FCS): 82%
inhibition at 20 µg/mL (HIV-1 patient isolate IH; 10% FCS): 100%
inhibition at 2.5 µg/mL (HIV-1 patient isolate IH; 50% Human Serum): 13%
inhibition at 5 µg/mL (HIV-1 patient isolate IH; 50% Human Serum): 80%
inhibition at 10 µg/mL (HIV-1 patient isolate IH; 50% Human Serum): 90%
inhibition at 20 µg/mL (HIV-1 patient isolate IH; 50% Human Serum): 100%
inhibition at 1 µg/mL [4]: 0%
inhibition at 2.5 µg/mL [4]: 95%
inhibition at 5 µg/mL [4]: 99%
detectable HIV specific p24 in mice (HIV-1 RF strain; SCID-hu mice, 50 mg/kg ip daily for five days): none of the 8 mice receiving Compound 6 had any detectable HIV specific p24 above the background of the no virus control
P24 Day 28 (HIV-1 RF strain; SCID-hu mice, 50 mg/kg ip daily for five days, one value per mouse, coculture supernatant, 50 mg/kg): 46.36 pg/mL and 35.44 pg/mL and 32.61 pg/mL and 40.90 pg/mL and 34.41 pg/mL and 34.36 pg/mL and 49.46 pg/mL and 58.02 pg/mL
prevention of infection of reconstituted human immune cells (HIV-1 RF strain; treatment for 5 days): sufficient to prevent infection of reconstituted human immune cells in an animal model

CCC(C)(C)c1ccc(OCC(=O)Nc2cc(S(=O)(=O)O)cc3cc(S(=O)(=O)O)c(N=Nc4cc(OC)c(N=Nc5c(S(=O)(=O)O)cc6cc(S(=O)(=O)O)cc(NC(=O)c7ccc(Cl)cc7Cl)c6c5O)cc4OC)c(O)c23)c(C(C)(C)CC)c1 [Compound 15]
Ames Test result [1]: Negative
LD50 at 168 h (LD50, intravenous, mice): 150 mg/kg
inhibition at 1.25 µg/mL (HIV-1 RF [5]): 61%
inhibition at 2.5 µg/mL (HIV-1 RF [5]): 89%
inhibition at 5 µg/mL (HIV-1 RF [5]): 100%

CCCCCCC(=O)Nc1cc(S(=O)(=O)O)cc2cc(S(=O)(=O)O)c(N=Nc3cc(OC)c(N=Nc4c(S(=O)(=O)O)cc5cc(S(=O)(=O)O)cc(NC(=O)Cc6ccccc6)c5c4O)cc3OC)c(O)c12 [Compound 17]
Ames Test result [1]: Negative
LD50 at 168 h (LD50, intravenous, mice): 130 mg/kg
inhibition at 1.25 µg/mL (HIV-1 RF [5]): 72%
inhibition at 2.5 µg/mL (HIV-1 RF [5]): 98%
inhibition at 5 µg/mL (HIV-1 RF [5]): 100%

CCOc1cc(N=Nc2c(S(=O)(=O)O)cc3cc(S(=O)(=O)O)cc(NC(=O)c4cccc(Cl)c4Cl)c3c2O)c(OCC)cc1N=Nc1c(S(=O)(=O)O)cc2cc(S(=O)(=O)O)cc(NC(=O)c3ccc(Cl)cc3Cl)c2c1O [Compound 28]
Ames Test result [1]: Negative
inhibition at 1.25 µg/mL (HIV-1 RF [3]; 10% FCS): 100%
inhibition at 2.5 µg/mL (HIV-1 RF [3]; 10% FCS): 100%
inhibition at 5 µg/mL (HIV-1 RF [3]; 10% FCS): 100%
inhibition at 1 µg/mL [4]: 0%
inhibition at 2.5 µg/mL [4]: 67%
inhibition at 5 µg/mL [4]: 98%

Cc1cc(NC(=O)Nc2ccc(N=Nc3cc(S(=O)(=O)[O-])c4cccc(S(=O)(=O)[O-])c4c3)c(C)c2)ccc1N=Nc1cc(S(=O)(=O)[O-])c2cccc(S(=O)(=O)[O-])c2c1.[Na+].[Na+].[Na+].[Na+] [Direct Yellow 50]
inhibition of reverse transcriptase (reverse transcriptase): inhibitors of reverse transcriptase

Cc1ccc(C(=O)Nc2ccc(S(=O)(=O)O)c3cc(S(=O)(=O)O)cc(S(=O)(=O)O)c23)cc1NC(=O)c1cccc(NC(=O)Nc2cccc(C(=O)Nc3cc(C(=O)Nc4ccc(S(=O)(=O)O)c5cc(S(=O)(=O)O)cc(S(=O)(=O)O)c45)ccc3C)c2)c1 [Suramin, reference compound]
LD50 at 168 h (LD50, intravenous, mice): 40 mg/kg
inhibitory effect against reverse transcriptase (in words) [2]: inhibitory effect against reverse transcriptase
inhibition at 0.5 µM [2]: 68%
inhibition at 1.25 µg/mL (HIV-1 RF [3]; 10% FCS): 0%
inhibition at 2.5 µg/mL (HIV-1 RF [3]; 10% FCS): 0%
inhibition at 5 µg/mL (HIV-1 RF [3]; 10% FCS): 0%
inhibition of reverse transcriptase (reverse transcriptase): inhibitors of reverse transcriptase
